Measured values from US20210212934A1, “METHODS FOR PROVIDING LONG-LASTING ANESTHETIC EFFECT USING MICROPARTICLES” (priority 2007, published 2021).

Assay: In vitro lidocaine release from microparticles (dialysis tube, water, 37° C., UV 214 nm)
Assay type: physicochemical
Method: Microparticle batches in an amount of 100 mg were placed in a dialysis tube (high retention seamless cellulose tubing; 23 mm×15 mm. MW cut-off 05173; Sigma Aldrich). The tube was then placed in a 30 ml glass vial containing 10 ml of deionized ultra-filtered water (Fisher Scientific). Vials were placed in a reciprocating shaking bath (Reciprocating Shaking Bath Model 50; Precision Scientific) with the temperature adjusted to 37° C., and shaking speed of 100 rpm. […] The entire 10 ml of dissolution medium was replaced with fresh medium at each sampling time interval. Dilution of 0.1 ml of the withdrawn sample was diluted to 10 ml of water in clean culture tubes of borosilicate glass (Pyrex). […] Two samples per microparticle batch were measured for drug release and triplicate samples were prepared for each release interval for UV-absorbance.

Q: For `CCN(CC)CC(=O)Nc1c(C)cccc1C` [lidocaine free base, lidocaine], which “time of peak of release” value (in vitro release profile, single peak) is on record?
A: about one

Q: And the “time at which release falls below minimum required level (5.6%)” value (in vitro release, point 10)?
A: 2.5 days

Q: And the “time at which drug is "exhausted"” value (in vitro release, time point 11)?
A: 3 days

Q: What about the “peak of lidocaine release” value (in vitro, % released at peak at about one day) of the same compound?
A: 18%
